In the experiment the test system is spruce somatic embryos. The experiment can be described thus: ex vitro re-germination of desiccated, pre-germinated spruce somatic embryos after ABA treatment. It is filed as in vivo. As to conditions: 90 min in darkness. The source says:
Somatic embryos of interior spruce (Picea glauca (Moench) Voss x P. engelmannii Parry ex Engelm.) lines I-1026, and 10-1418 were produced and dried with a high-relative-humidity treatment (HRHT) according to the methods of Roberts et al. (1990a; 1990b) and Webster et al. (1990).
Two groups of dried embryos for each of the two genotypes, were germinated on Whatman #1 filter paper on a thin layer of cotton in polycarbonate boxes. The liquid germination medium was modified GMD medium (NH4^+—N/NO3^−—N ratio was 1.4; phosphate concentration was 6 mM; 3% sucrose). After the embryos were sown onto the filter paper, the liquid level in the germination boxes was adjusted to provide a liquid film surrounding the surface of embryos situated at the interface with the solid support. The boxes were sealed with Parafilm and placed in a controlled environment room with the temperature maintained at a constant 23° C.
The first group of somatic embryos was germinated for 7 days after which, the polycarbonate boxes containing the germinants were transferred into refrigerated storage (i.e., temperatures were within a range of 8-12° C.) for 72 hours. The germinants were then removed from the cold treatment and subsequently received the various ABA treatments described below. The germinants which received the cold treatment are hereafter referred to as “stored germinants” .
This group of germinants is referred to hereafter as “fresh germinants”.
The stored and fresh germinants of each genotype were carefully paired into four groups, on wetted paper towel disks in separate 10 cm Petri dishes and received four ABA treatments, said ABA treatments being concentrations of 0, 5, 10, 20 μM, respectively. The ABA treatments were applied in darkness for 90 min.
After the completion of the ABA treatments, the somatic germinants were blot-dried on paper towels. The germinants were then transferred to fresh 5 cm Petri dish. The dishes, two per drying chamber, were placed in drying chambers containing a saturated KCl solution, which provided an atmospheric humidity of 85% RH over the liquid surface in a sealed chamber at 20° C. The somatic germinants were dried for 24 hr in a refrigerated room maintained between 5-8° C. after which, the drying chambers were transferred into a controlled environment room maintained at 20° C. for another 15 h.
The dried germinants were sown into 288-cavity miniplug trays (TLC Polyform Inc,. Plymouth Minn., USA, 55441) filled with a peat-based soilless mix comprised of 60% peat and 40% coarse horticultural vermiculite. Each germinant type of each genotype in each ABA treatment was randomly sown into 5 minitrays in blocks of 20 germinants. After sowing, the germinants were covered with a thin layer of coir (1993 Crystal Co., St. Louis, Mo., USA). The trays were wrapped in black plastic bags for 18 hrs to allow slow rehydration of germinants. Then, the trays were misted with a modified GMD nutrient solution (Webster et al., 1990) containing 3% sucrose until the soilless mix and coir became well wetted. The trays were placed in two misting chambers in a controlled environment germination room under light reduced by a 50% shade cloth for the first week. The shade cloth was removed at the end of the first week and the germinants were exposed to a light intensity of 180 μmol m^−2s^−1 photosynthetic photon flux. The chambers were frequently misted to keep the soilless mix moistened. Modified GMD solution with 3% sucrose was sprayed onto the germinants daily. After 7 days, germinants were fertilized weekly with 20-20-20 fertilizer (Plant Products Ltd., Brampton, ON, Canada) to deliver the equivalent of 100 ppm N.

As for `CC1=CC(=O)CC(C)(C)[C@@]1(O)/C=C/C(C)=C\C(=O)O` [ABA, abscisic acid], the “Re-germination success (%)” value by setting is: (genotype 10-1418, "fresh" germinants, ABA 5 μM) 53.8%; (genotype 10-1418, "fresh" germinants, ABA 10 μM) 16.6%; (genotype 10-1418, "fresh" germinants, ABA 20 μM) 29.8%; (genotype 10-1418, "stored" germinants, ABA 5 μM) 59.8%; (genotype 10-1418, "stored" germinants, ABA 10 μM) 57.5%; (genotype 10-1418, "stored" germinants, ABA 20 μM) 60.0%. The “Re-germination success (%)” value runs as follows: (genotype I-1026, "fresh" germinants, ABA 5 μM) 35.0%; (genotype I-1026, "fresh" germinants, ABA 10 μM) 53.3%; (genotype I-1026, "fresh" germinants, ABA 20 μM) 48.2%; (genotype I-1026, "stored" germinants, ABA 5 μM) 71.8%; (genotype I-1026, "stored" germinants, ABA 10 μM) 74.3%; (genotype I-1026, "stored" germinants, ABA 20 μM) 73.5%.
